Laboratory results from US20230151363A1, “MODIFIED SHORT-INTERFERING RNA COMPOSITIONS AND THEIR USE IN THE TREATMENT OF CANCER” (THE RESEARCH FOUNDATION FOR THE STATE UNIVERSITY OF NEW YORK, priority 2020, published 2023).

System: BCL-2 protein
Experiment: Western immunoblot analysis of BCL-2 protein
Type: cell-based, human
Details: cancer cells treated with 5-FU alone
Experimental: Western immunoblot analysis. Twenty-four hours prior to transfection 1×10^5 cells were plated in 6 well plates. Cells were either transfected using Oligofectamine (Thermo Fischer) or no transfection vehicle, with 50 nM control (scrambled) siRNA (Thermo Fischer), unmodified siBCL2 or an exemplary modified siBCL2 siRNA. Three days following transfection protein was collected in RIPA buffer with protease inhibitor (Sigma). Equal amounts of protein (15 μg), were separated on 12% sodium dodecyl sulfate-polyacrylamide gels as described in Laemmli U K. Nature. 1970; 227(5259) pp. 680-685, the entire contents of which is incorporated herein by reference. Proteins were probed with anti-BCL2 antibody (1:1000) (Thermo Fischer) and anti-GAPDH antibody (1:100000) (Santa Cruz). Horseradish peroxidase conjugated secondary antibodies against mouse or rabbit (1:5000, Santa Cruz Biotech Inc.) were added. Protein bands were then visualized with autoradiography film using SuperSignal West Pico Chemiluminescent Substrate (Thermo Fischer).

O=c1[nH]cc(F)c(=O)[nH]1 [5-FU, 5-fluoro-1H-pyrimidine-2,4-dione]
BCL-2 expression (Western blot): does not result in reduction of BCL-2 expression
